What was measured:
[1] = biological target: Sodium-dependent noradrenaline transporter (Homo sapiens, UniProt P23975); experiment: DRUGMATRIX: Norepinephrine Transporter radioligand binding (ligand: [125I] RTI-55); type: cell membranes, MDCK, Membrane; settings: mdck; Not Active = under 50% inhibition at 10 µM
[2] = biological target: 5-hydroxytryptamine receptor 2B (Homo sapiens, UniProt P41595); type: cell membranes, CHO-K1, Membrane; further: in other assays of this panel Not Active means under 50% inhibition at 10 µM
Chain of 5-hydroxytryptamine receptor 2B (P41595 whole entry): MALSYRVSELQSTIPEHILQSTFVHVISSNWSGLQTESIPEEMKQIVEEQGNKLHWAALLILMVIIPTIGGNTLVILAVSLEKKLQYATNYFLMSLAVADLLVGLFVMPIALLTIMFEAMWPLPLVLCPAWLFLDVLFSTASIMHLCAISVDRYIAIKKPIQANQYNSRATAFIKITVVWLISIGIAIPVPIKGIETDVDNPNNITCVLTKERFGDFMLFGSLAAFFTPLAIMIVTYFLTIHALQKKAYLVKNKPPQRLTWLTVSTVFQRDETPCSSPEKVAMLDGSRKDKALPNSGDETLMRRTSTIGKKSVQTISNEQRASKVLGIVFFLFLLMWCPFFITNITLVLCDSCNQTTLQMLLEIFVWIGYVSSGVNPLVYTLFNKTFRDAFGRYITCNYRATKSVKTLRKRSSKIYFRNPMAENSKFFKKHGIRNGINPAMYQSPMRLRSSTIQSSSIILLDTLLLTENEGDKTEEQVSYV

Progesterone receptor = biological target: T1, Progesterone receptor (Bos taurus, UniProt Q690N0); experiment: DRUGMATRIX: Progesterone radioligand binding (ligand: [3H] R-5020); type: tissue-based, Uterus; settings: Not Active = under 50% inhibition at 10 µM
T1 sequence (Q690N0 whole entry): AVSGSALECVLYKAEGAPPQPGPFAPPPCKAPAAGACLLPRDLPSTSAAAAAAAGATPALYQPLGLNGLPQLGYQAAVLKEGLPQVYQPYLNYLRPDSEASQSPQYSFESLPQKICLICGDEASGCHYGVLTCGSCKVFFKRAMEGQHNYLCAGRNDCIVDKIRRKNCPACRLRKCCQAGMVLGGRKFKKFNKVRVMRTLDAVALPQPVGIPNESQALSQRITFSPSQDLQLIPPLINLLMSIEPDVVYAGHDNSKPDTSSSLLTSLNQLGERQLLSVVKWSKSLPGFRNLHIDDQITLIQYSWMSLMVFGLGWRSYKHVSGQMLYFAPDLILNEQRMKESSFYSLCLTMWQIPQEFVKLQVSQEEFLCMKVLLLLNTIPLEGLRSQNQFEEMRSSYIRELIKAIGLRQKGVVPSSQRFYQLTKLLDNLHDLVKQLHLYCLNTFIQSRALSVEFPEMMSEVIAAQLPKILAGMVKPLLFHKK

Cytochrome P450 1A2 = biological target: T2, Cytochrome P450 1A2 (Homo sapiens, UniProt P05177); settings: bti-tn-5b1-4; further: in other assays of this panel Not Active means under 50% inhibition at 10 µM
T2 sequence (P05177 whole entry): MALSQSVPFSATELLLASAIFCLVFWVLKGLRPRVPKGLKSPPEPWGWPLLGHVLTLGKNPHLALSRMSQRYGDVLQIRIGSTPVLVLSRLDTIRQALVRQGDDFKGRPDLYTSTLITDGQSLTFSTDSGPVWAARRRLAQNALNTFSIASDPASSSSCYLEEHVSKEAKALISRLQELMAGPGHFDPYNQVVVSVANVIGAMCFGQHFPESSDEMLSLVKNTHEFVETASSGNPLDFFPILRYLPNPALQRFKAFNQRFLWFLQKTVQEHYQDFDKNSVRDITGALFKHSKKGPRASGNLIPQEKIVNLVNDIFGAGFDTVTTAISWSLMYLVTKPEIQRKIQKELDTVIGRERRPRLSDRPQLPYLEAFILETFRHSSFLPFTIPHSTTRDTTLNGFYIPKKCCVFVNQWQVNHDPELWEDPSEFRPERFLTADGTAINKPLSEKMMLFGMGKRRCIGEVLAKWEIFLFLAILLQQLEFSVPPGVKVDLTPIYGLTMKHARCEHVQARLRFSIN

Cytochrome P450 2C19 = Cytochrome P450 2C19 (Homo sapiens, UniProt P33261); settings: bti-tn-5b1-4; further: in other assays of this panel Not Active means under 50% inhibition at 10 µM
Chain of Cytochrome P450 2C19 (P33261 whole entry): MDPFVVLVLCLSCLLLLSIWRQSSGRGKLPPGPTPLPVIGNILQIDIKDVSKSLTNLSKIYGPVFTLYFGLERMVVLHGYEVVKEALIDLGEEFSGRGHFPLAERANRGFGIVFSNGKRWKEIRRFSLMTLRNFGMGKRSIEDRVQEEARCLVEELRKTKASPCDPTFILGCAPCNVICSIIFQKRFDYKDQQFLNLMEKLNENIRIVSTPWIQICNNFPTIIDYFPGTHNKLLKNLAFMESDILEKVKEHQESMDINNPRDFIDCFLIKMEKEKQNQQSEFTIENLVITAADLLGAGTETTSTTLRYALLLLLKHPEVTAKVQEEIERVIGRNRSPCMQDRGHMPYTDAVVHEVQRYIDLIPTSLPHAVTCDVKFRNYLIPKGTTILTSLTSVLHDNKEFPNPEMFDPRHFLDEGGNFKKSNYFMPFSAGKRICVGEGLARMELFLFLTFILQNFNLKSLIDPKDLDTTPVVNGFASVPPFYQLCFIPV

Cytochrome P450 2E1 = Cytochrome P450 2E1 (Homo sapiens, UniProt P05181); settings: bti-tn-5b1-4; further: in other assays of this panel Not Active means under 50% inhibition at 10 µM
Chain of Cytochrome P450 2E1 (P05181 whole entry): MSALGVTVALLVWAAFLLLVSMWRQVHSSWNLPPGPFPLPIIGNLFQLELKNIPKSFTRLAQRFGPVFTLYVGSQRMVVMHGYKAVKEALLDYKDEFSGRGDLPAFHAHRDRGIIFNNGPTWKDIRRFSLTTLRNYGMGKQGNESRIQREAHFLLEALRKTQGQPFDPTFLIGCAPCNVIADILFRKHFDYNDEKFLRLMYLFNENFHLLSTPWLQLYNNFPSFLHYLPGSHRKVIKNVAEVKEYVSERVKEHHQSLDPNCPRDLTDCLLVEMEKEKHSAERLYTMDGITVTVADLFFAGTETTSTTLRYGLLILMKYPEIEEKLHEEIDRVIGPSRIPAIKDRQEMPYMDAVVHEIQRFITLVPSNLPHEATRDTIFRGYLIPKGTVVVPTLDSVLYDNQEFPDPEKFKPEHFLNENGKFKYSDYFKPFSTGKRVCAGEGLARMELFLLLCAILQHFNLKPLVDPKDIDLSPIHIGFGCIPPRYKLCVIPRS

Glucocorticoid receptor = biological target: T3, Glucocorticoid receptor (Homo sapiens, UniProt P04150); settings: hela s3; further: in other assays of this panel Not Active means under 50% inhibition at 10 µM
T3 sequence (P04150 whole entry): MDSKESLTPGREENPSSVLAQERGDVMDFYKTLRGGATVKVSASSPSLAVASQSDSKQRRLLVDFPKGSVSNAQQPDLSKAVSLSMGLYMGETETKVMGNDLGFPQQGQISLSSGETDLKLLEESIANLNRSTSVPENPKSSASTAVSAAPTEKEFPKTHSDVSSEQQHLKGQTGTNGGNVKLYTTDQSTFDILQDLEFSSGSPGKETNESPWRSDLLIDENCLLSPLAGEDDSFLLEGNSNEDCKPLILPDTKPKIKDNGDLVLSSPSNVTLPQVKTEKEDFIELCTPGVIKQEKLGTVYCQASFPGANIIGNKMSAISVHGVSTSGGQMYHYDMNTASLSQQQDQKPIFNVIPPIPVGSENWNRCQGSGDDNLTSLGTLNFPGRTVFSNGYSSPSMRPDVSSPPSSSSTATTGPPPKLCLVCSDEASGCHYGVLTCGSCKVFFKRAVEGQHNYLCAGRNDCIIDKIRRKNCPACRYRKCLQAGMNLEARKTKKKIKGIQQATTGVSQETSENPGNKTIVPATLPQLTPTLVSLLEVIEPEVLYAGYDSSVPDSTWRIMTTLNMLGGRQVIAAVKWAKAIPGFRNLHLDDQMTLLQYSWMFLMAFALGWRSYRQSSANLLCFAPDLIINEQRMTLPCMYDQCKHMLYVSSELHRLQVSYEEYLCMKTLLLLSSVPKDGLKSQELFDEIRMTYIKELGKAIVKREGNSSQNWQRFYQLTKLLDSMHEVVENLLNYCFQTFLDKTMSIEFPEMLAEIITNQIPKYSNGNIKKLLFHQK

Chain of Sodium-dependent noradrenaline transporter (P23975 whole entry): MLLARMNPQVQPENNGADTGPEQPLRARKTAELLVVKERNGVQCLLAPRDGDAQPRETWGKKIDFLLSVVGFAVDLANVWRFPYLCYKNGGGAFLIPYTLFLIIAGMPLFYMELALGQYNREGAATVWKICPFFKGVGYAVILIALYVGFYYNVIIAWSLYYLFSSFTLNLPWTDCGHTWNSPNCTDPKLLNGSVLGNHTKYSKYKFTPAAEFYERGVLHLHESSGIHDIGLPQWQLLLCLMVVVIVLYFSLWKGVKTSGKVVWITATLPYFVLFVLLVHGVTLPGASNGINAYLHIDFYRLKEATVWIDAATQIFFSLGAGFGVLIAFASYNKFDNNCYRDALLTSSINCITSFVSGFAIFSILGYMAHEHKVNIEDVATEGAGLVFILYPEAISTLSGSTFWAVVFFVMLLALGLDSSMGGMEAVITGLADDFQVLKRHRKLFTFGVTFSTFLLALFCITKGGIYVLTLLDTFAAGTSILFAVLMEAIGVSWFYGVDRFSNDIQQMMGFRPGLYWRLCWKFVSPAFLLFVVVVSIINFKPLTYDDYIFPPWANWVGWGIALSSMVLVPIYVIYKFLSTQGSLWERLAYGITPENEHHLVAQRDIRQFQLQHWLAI

Molecule | IC50 [1] | Ki [1] | IC50 ([2]; cho-k1) | Ki ([2]; cho-k1) | IC50 (Progesterone receptor) | Ki (Progesterone receptor) | IC50 (Cytochrome P450 1A2) | Ki (Cytochrome P450 1A2) | IC50 (Cytochrome P450 2C19) | Ki (Cytochrome P450 2C19) | IC50 (Cytochrome P450 2E1) | Ki (Cytochrome P450 2E1) | IC50 (Glucocorticoid receptor) | Ki (Glucocorticoid receptor) | IC50 ([2]; read-out: IC50) [nM] | Ki ([2]; read-out: Ki) [nM]
LEAD(IV) ACETATE | Not Active | Not Active | Not Active | Not Active | Not Active | Not Active | Not Active | Not Active | Not Active | Not Active | Not Active | Not Active | Not Active | Not Active |  | 
CO[C@@H]1[C@@H](OC)[C@H](C)[C@@](O)(CC(=O)O)O[C@H]1[C@H](C)[C@H]1O[C@@]2(CC[C@@](C)([C@H]3CC[C@@](C)([C@@H]4O[C@@H]([C@H]5O[C@](C)(O)[C@H](C)C[C@@H]5C)C[C@@H]4O[C@@H]4C[C@H](OC)[C@@H](OC)[C@H](C)O4)O3)O2)C[C@H](O)[C@H]1C.N [MADURAMICIN] | Not Active |  | Not Active |  | Not Active |  | Not Active | Not Active | Not Active | Not Active | Not Active | Not Active | Not Active |  |  | 
Cc1ccnc(NS(=O)(=O)c2ccc(N)cc2)n1 [SULFAMERAZINE] | Not Active |  | Not Active |  | Not Active |  | Not Active | Not Active | Not Active | Not Active | Not Active | Not Active | Not Active |  |  | 
CCN1CCCC1CNC(=O)c1cc(S(N)(=O)=O)ccc1OC (stereo not given) [SULPIRIDE] | Not Active |  | Not Active |  | Not Active |  | Not Active | Not Active | Not Active | Not Active | Not Active | Not Active | Not Active |  |  | 
CC1=C(/C=C/C(C)=C/C=C/C(C)=C/C(=O)O)C(C)(C)CCC1 [TRETINOIN] | Not Active |  |  |  | Not Active |  | Not Active | Not Active | Not Active | Not Active | Not Active | Not Active | Not Active |  | 358 | 228

Reference: ChEMBL document CHEMBL1909046, “DrugMatrix in vitro pharmacology data”
